Measurements published in US11304926B2, “Application of transient receptor potential cation channel TRPV3 in developing drug for preventing or treating psoriasis” (CHINA PHARMACEUTICAL UNIVERSITY, priority 2019, dated 2022).
Marks after values point to notes of the source that are not given here.

Assays:
[1] = test system: back skins of C57BL/6 mice; experiment: PASI score of back skin of mice after continuous application of 5% imiquimod ointment (model induction); assay type: in vivo, mouse; conditions: 62.5 mg 5% imiquimod ointment on back skin, mean ± SD
Text: (§1) 16 C57BL/6 mice, with half male and half female were purchased from the Experimental Animal Center of Nanjing Medical University, wherein weights of the mice ranged from 18 g to 20 g. Back hair of the mice was shaved off, and then the mice were randomly divided into 2 groups (8 mice in each group) according to male and female genders. Before experiment, the mice were placed in a quiet environment kept away from strong light for 3 days to adapt to the environment, a ratio of an illuminating time to a dark time was 1:1, a room temperature was controlled at 25° C., a humidity was 55%, and the mice could eat and drink freely. 62.5 mg of 5% (0.1 g:2 g) imiquimod ointment (Zhuhai United Laboratories Co., Ltd.) was continuously applied to back skins of the mice for 6 days to induce a psoriasis-like lesion, while the same dose of vaseline ointment was given to the control group. The back skins of the mice were photographed and recorded on the 1st, 3rd and 5th days of modeling and skin appearances on the 5th day of modeling were shown in FIG. 2A.
(§2) The clinical symptom of the mouse psoriasis model was evaluated by a PASI scoring standard from three indicators of erythema, scale and infiltration thickening. The scores ranged from 0 point to 4 points, and a total score was obtained by adding scores of the three indicators. The PASI scoring standard was as follows: 0 point referred to no symptom; 1 point referred to a mild degree; 2 points referred to a moderate degree; 3 points referred to a severe degree; and 4 points referred to an extremely severe degree. The PASI evaluation was conducted daily before the IMQ ointment was applied. It should be noted that measurement data was represented by mean±standard deviation (mean±SD), and was detected by One-Way ANOVA, wherein in the analysis results, ** represented that P<0.01, which was relative to the vaseline group.

[2] = test system: mouse psoriasis model induced by 5% IMQ; experiment: PASI score of mouse psoriasis model induced by imiquimod under drug intervention; assay type: in vivo; conditions: 0.1% dexamethasone s.c. 100 μL twice a day + imiquimod, n = 8, mean ± SD
Text: as §1, with “group.” for “group. The back skins of the mice were photographed and recorded on the 1st, 3rd and 5th days of modeling and skin appearances on the 5th day of modeling were shown in FIG. 2A.”
as §2, with “applied.” for “applied. It should be noted that measurement data was represented by mean±standard deviation (mean±SD), and was detected by One-Way ANOVA, wherein in the analysis results, ** represented that P<0.01, which was relative to the vaseline group.”
C57BL/6 mice, with half male and half female were purchased from the Experimental Animal Center of Nanjing Medical University, wherein weights of the mice ranged from 18 g to 20 g. The C57BL/6 mice were randomly divided into 4 groups (8 mice in each group). Mouse psoriasis models were established as described in Embodiment 2 (1). […]
Back skins of the mice were photographed and recorded on the 1st, 3rd and 5th days after modeling.

| Structure (SMILES) | PASI score ([1]; day 1) | PASI score ([1]; day 2) | PASI score ([1]; day 3) | PASI score ([1]; day 4) | PASI score ([1]; day 5) | PASI score ([2]; day 1) | PASI score ([2]; day 2) | PASI score ([2]; day 3) | PASI score ([2]; day 4) | PASI score ([2]; day 5) |
| --- | --- | --- | --- | --- | --- | --- | --- | --- | --- | --- |
| CC(C)Cn1cnc2c(N)nc3ccccc3c21 [Imiquimod, imiquimod] | 0.0 ± 0.0 | 1.5 ± 0.8 | 4.5 ± 2.2** | 6.8 ± 1.7** | 9.8 ± 1.3** | – | – | – | – | – |
| C[C@@H]1C[C@H]2[C@@H]3CCC4=CC(=O)C=C[C@]4(C)[C@@]3(F)[C@@H](O)C[C@]2(C)[C@@]1(O)C(=O)CO [Dexamethasone, dexamethasone, reference compound] | – | – | – | – | – | 0.0 ± 0.0 | 0.3 ± 0.5 | 0.8 ± 0.5 | 1.5 ± 1.0 | 2.3 ± 0.9 |
